Results as given in patent publication US20230339970A1, “CASEIN KINASE 1 DELTA MODULATORS” (priority 2020, published 2023).

Experiments:
[1] = target: T1, human recombinant GST cleaved CSNK1D (Homo sapiens, UniProt P48730); test: Purified Enzyme Assay (ADP-Glo CSNK1D Kinase Assay); assay type: biochemical; conditions: 2 nM CSNK1D; peptide substrate 150 μM; ATP 20 μM; 45 minutes at room temperature
T1 construct: GST (cleaved yes); purchased University of Dundee clone DU 19064
Outline: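 GST-cleaved human recombinant CSNK1D phosphorylates peptide PLSRTL-pS-VASLPGL with ATP; compounds added in dose-response, 45 min at room temperature. ADP formed measured by ADP-Glo luminescence and converted to percent activity.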

human CSNK1D = target: T2, human CSNK1D (Homo sapiens, UniProt P48730); test: Whole Cell nBRET CSNK1D Binding Assay; conditions: living CHO cells stably expressing human CSNK1D tagged with nanoluciferase; NanoBret tracer 130 nM; 2 hours at 37 C
T2 construct: expressed in transfected cells
T2 sequence (P48730 whole entry): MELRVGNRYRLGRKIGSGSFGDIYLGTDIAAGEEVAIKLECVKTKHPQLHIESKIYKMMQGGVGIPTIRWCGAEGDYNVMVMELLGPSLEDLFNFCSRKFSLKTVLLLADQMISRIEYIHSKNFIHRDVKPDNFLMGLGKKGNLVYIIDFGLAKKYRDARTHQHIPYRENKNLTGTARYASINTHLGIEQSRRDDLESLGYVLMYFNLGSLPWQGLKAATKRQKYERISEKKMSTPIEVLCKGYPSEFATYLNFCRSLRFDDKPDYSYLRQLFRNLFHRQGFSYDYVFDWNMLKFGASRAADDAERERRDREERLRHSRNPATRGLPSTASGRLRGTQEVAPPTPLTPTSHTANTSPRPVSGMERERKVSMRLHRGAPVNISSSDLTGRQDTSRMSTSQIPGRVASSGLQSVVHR

T1 sequence (P48730 whole entry): as above

IC50 [1]	IC50 (human CSNK1D)	Compound
1 nM	2 nM	Cc1cc(-c2c(-c3ccc(F)cc3)nn3c2OCC2(C3)CC2(F)F)c2cn[nH]c2n1 (single isomer, unassigned) [Example 474, *S-2,2-Difluoro-2′-(4-fluorophenyl)-3′-6-methyl-1H-pyrazolo[3,4-b]pyridin-4-yl)-5′H,7′H-spiro[cyclopropane-1,6′-pyrazolo[5,1-b][1,3]oxazine]]
75 nM	1910 nM	COC[C@]1(F)CCc2c(-c3ccnc4[nH]ncc34)c(-c3ccc(F)cn3)nn2C1 (single isomer, unassigned) [Example 300, (*S)-4-[6-Fluoro-2-(5-fluoro-2-pyridyl)-6-(methoxymethyl)-5,7-dihydro-4H-pyrazolo[1,5-a]pyridin-3-yl]-1H-pyrazolo[3,4-b]pyridine]
2 nM	71 nM	Fc1ccc(-c2nn3c(c2-c2c(F)cnc4[nH]ncc24)C[C@@H]2C[C@@H]23)nc1 [Example 272, (4aS,5aS)-3-(5-Fluoro-1H-pyrazolo[3,4-b]pyridin-4-yl)-2-(5-fluoropyridin-2-yl)-4,4a,5,5a-tetrahydrocyclopropa[4,5]pyrrolo[1,2-b]pyrazole]
4 nM	49 nM	FCC1Cn2nc(-c3ccc(F)cc3)c(-c3ccnc4[nH]ncc34)c2CO1 (single isomer, unassigned) [Example 104, (*S)-6-(Fluoromethyl)-2-(4-fluorophenyl)-3-(1H-pyrazolo[3,4-b]pyridin-4-yl)-6,7-dihydro-4H-pyrazolo[5,1-c][1,4]oxazine]
5 nM	87 nM	Cc1cc(-c2c(-c3ccc(F)cn3)nn3c2COC(C)(C)C3)c2c(C)n[nH]c2n1 [Example 156, 3-(3,6-Dimethyl-1H-pyrazolo[3,4-b]pyridin-4-yl)-2-(5-fluoro-2-pyridyl)-6,6-dimethyl-4,7-dihydropyrazolo[5,1-c][1,4]oxazine]
3 nM	107 nM	Cc1cc(-c2c(-c3ccc(F)cn3)nn3c2C[C@@]2(C3)CC2(F)F)c2cn[nH]c2n1 (single isomer, unassigned) [Example 260, (*S)-1′,1′-Difluoro-2-(5-fluoro-2-pyridyl)-3-(6-methyl-1H-pyrazolo[3,4-b]pyridin-4-yl)spiro[4,6-dihydropyrrolo[1,2-b]pyrazole-5,2′-cyclopropane]]
4 nM	51 nM	C[C@@H]1CCc2c(-c3ccnc4[nH]ncc34)c(-c3ccc(F)cc3)nn21 [Example 16, 4-[(6R)-2-(4-Fluorophenyl)-6-methyl-5,6-dihydro-4H-pyrrolo[1,2-b]pyrazol-3-yl]-1H-pyrazolo[3,4-b]pyridine]
102 nM	5120 nM	[2H]C([2H])([2H])OC([2H])([2H])[C@@]1(F)CCc2c(-c3cc(C)nc4[nH]ncc34)c(-c3ccc(F)cn3)nn2C1 (single isomer, unassigned) [Example 313, (*R)-4-[6-[(Methoxy-d3)methyl-d2]-6-fluoro-2-(5-fluoro-2-pyridyl)-5,7-dihydro-4H-pyrazolo[1,5-a]pyridin-3-yl]-6-methyl-1H-pyrazolo[3,4-b]pyridine]
21 nM	218 nM	CC1COc2c(-c3ccnc4ccsc34)c(-c3ccc(F)cn3)nn2C1 (stereo not shown) [Example 195, 2-(5-Fluoropyridin-2-yl)-6-methyl-3-(thieno[3,2-b]pyridin-7-yl)-6,7-dihydro-5H-pyrazolo[5,1-b][1,3]oxazine]
10 nM	93 nM	CC1(C)Cn2nc(-c3ccc(F)cn3)c(-c3cc(N)n4nccc4c3)c2CO1 [Example 380, 5-[2-(5-Fluoro-2-pyridyl)-6,6-dimethyl-4,7-dihydropyrazolo[5,1-c][1,4]oxazin-3-yl]pyrazolo[1,5-a]pyridin-7-amine]
16 nM	352 nM	CC1COCc2c(-c3ccnc(CO)c3)c(-c3ccc(F)cc3)nn21 (stereo not shown) [Example 90, (4-(2-(4-Fluorophenyl)-7-methyl-6,7-dihydro-4H-pyrazolo[5,1-c][1,4]oxazin-3-yl)pyridin-2-yl)methanol]
4 nM	40 nM	[2H]C([2H])([2H])[C@@]1(C(F)(F)F)Cn2nc(-c3ccc(F)cn3)c(-c3ccnc4[nH]ncc34)c2CO1 (single isomer, unassigned) [Example 424, (*S)-2-(5-Fluoropyridin-2-yl)-6-(methyl-d3)-3-(1H-pyrazolo[3,4-b]pyridin-4-yl)-6-(trifluoromethyl)-6,7-dihydro-4H-pyrazolo[5,1-c][1,4]oxazine]
36 nM	440 nM	CC1(C)Cn2nc(-c3ccc(F)cn3)c(-c3ccnc(C(F)F)c3)c2CO1 [Example 129, 3-(2-(Difluoromethyl)pyridin-4-yl)-2-(5-fluoropyridin-2-yl)-6,6-dimethyl-6,7-dihydro-4H-pyrazolo[5,1-c][1,4]oxazine]
67 nM	1590 nM	CCn1ncc2cc(-c3c(-c4ccc(F)cn4)nn4c3OCC(C)C4)cnc21 (stereo not shown) [Example 444, 3-(1-Ethyl-1H-pyrazolo[3,4-b]pyridin-5-yl)-2-(5-fluoropyridin-2-yl)-6-methyl-6,7-dihydro-5H-pyrazolo[5,1-b][1,3]oxazine]
3 nM	16 nM	CCC(=O)Nc1cc(-c2c(-c3ccc(F)cn3)nn3c2COC(C)(C)C3)ccn1 [Example 131, N-(4-(2-(5-Fluoropyridin-2-yl)-6,6-dimethyl-6,7-dihydro-4H-pyrazolo[5,1-c][1,4]oxazin-3-yl)pyridin-2-yl)propionamide]
10 nM	228 nM	Fc1ccc(-c2nn3c(c2-c2c(F)cnc4[nH]ncc24)OC[C@@H]2C[C@@H]2C3)nc1 (stereo in doubt) [Example 480, (5a*R,6a*S)-3-(5-Fluoro-1H-pyrazolo[3,4-b]pyridin-4-yl)-2-(5-fluoropyridin-2-yl)-5a,6,6a,7-tetrahydro-5H-cyclopropa[e]pyrazolo[5,1-b][1,3]oxazepine]
1 nM	1 nM	CC(=O)Nc1cc(-c2c(-c3ccc(F)cc3)nn3c2CC[C@H]2[C@@H]3C2(F)F)ccn1 (stereo in doubt) [Example 350, N-(4-((5a*S,6a*R)-6,6-Difluoro-2-(4-fluorophenyl)-5,5a,6,6a-tetrahydro-4H-cyclopropa[e]pyrazolo[1,5-a]pyridin-3-yl)pyridin-2-yl)acetamide]
12 nM	270 nM	Cc1cc(-c2c(-c3cscn3)nn3c2COC(C)(C)C3)c2cn[nH]c2n1 [Example 125, 6,6-Dimethyl-3-(6-methyl-1H-pyrazolo[3,4-b]pyridin-4-yl)-2-(thiazol-4-yl)-6,7-dihydro-4H-pyrazolo[5,1-c][1,4]oxazine]
1 nM	3 nM	Fc1ccc(-c2nn3c(c2-c2ccnc4[nH]ncc24)C[C@@H]2[C@H](C3)C2(F)F)cc1 (stereo in doubt) [Example 362, (4a*R,5a*R)-5,5-Difluoro-2-(4-fluorophenyl)-3-(1H-pyrazolo[3,4-b]pyridin-4-yl)-4a,5,5a,6-tetrahydro-4H-cyclopropa[d]pyrazolo[1,5-a]pyridine]
3 nM	24 nM	Cc1nc2[nH]ncc2c(-c2c(-c3ccc(F)cn3)nn3c2CO[C@@](C)(C(F)(F)F)C3)c1F (single isomer, unassigned) [Example 420, (*R)-3-(5-Fluoro-6-methyl-1H-pyrazolo[3,4-b]pyridin-4-yl)-2-(5-fluoropyridin-2-yl)-6-methyl-6-(trifluoromethyl)-6,7-dihydro-4H-pyrazolo[5,1-c][1,4]oxazine]
4 nM	14 nM	CC1(C)Cn2nc(-c3ccc(F)cn3)c(-c3ccnc4[nH]nc(Cl)c34)c2CO1 [Example 388, 3-(3-Chloro-1H-pyrazolo[3,4-b]pyridin-4-yl)-2-(5-fluoropyridin-2-yl)-6,6-dimethyl-6,7-dihydro-4H-pyrazolo[5,1-c][1,4]oxazine]
1 nM	14 nM	Nc1cc(-c2c(-c3ccc(F)cc3)nn3c2C[C@H](F)C3)ccn1 [Example 10, (S)-4-(5-Fluoro-2-(4-fluorophenyl)-5,6-dihydro-4H-pyrrolo[1,2-b]pyrazol-3-yl)pyridin-2-amine]
162 nM	9660 nM	Cc1nc2cc(-c3c(-c4ccc(F)cn4)nn4c3COC(C)(C)C4)ccn2n1 [Example 386, 2-(5-Fluoropyridin-2-yl)-6,6-dimethyl-3-(2-methyl-[1,2,4]triazolo[1,5-a]pyridin-7-yl)-6,7-dihydro-4H-pyrazolo[5,1-c][1,4]oxazine]
12 nM	69 nM	[2H]C([2H])([2H])C1(C([2H])([2H])[2H])Cn2nc(-c3ccc(F)cn3)c(-c3c(F)c(C)nc4[nH]nc(C)c34)c2CO1 [Example 409, 3-(5-Fluoro-3,6-dimethyl-1H-pyrazolo[3,4-b]pyridin-4-yl)-2-(5-fluoropyridin-2-yl)-6,6-bis(methyl-d3)-6,7-dihydro-4H-pyrazolo[5,1-c][1,4]oxazine]

Compound	IC50 [1]	IC50 (human CSNK1D)
CC1(C)COCc2c(-c3ccnc4[nH]ncc34)c(-c3ccc(F)cn3)nn21 [Example 122, 2-(5-Fluoro-2-pyridyl)-7,7-dimethyl-3-(1H-pyrazolo[3,4-b]pyridin-4-yl)-4,6-dihydropyrazolo[5,1-c][1,4]oxazine]	120 nM	3410 nM
Cc1cc(-c2c(-c3ccc(F)cc3)nn3c2CO[C@@H](C)C3)c2cn[nH]c2n1 (single isomer, unassigned) [Example 83, (*S)-2-(4-Fluorophenyl)-6-methyl-3-(6-methyl-1H-pyrazolo[3,4-b]pyridin-4-yl)-6,7-dihydro-4H-pyrazolo[5,1-c][1,4]oxazine]	3 nM	34 nM
